Source: article PMC6100189, “In Silico Docking and In Vitro Approaches towards BACE1 and Cholinesterases Inhibitory Effect of Citrus Flavanones” (Molecules : A Journal of Synthetic Chemistry and Natural …, 2018)

Assays:
[1] = biological target: T1, BACE1 (Homo sapiens, UniProt P56817); test: BACE1 inhibition assay (Invitrogen kit, Rh-[…]-Quencher substrate); assay type: biochemical
T1 construct: purchased Invitrogen (Pan Vera, Madison, WI, USA)
Experimental: (§3) The BACE1 kit from Invitrogen (Pan Vera, Madison, WI, USA) was used for the measurement of BACE1 activity. α-Secretase (tumor necrosis factor-α converting enzyme, TACE) and its fluorogenic substrate were purchased from R&D Systems (Minneapolis, MN, USA). Elastase, chymotrypsin, trypsin, and their substrates were obtained from Sigma-Aldrich.
(§4) BACE1, TACE, chymotrypsin, trypsin, and elastase assays were carried out according to previously described methods [33]. BACE1, TACE, trypsin, chymotrypsin, and elastase assays were carried out using Rh-[sequence]-Quencher, Mca-PLAQAV-Dpa-RSSSR-NH2, N-benzoyl-l-Arg-pNA, N-benzoyl-L-Tyr-pNA, and N-succinyl-Ala-Ala-Ala-pNA as substrates, respectively.

[2] = biological target: T2, AChE (Electrophorus electricus, UniProt O42275); test: AChE inhibition, modified Ellman colorimetric method; assay type: biochemical; conditions: mean ± S.E. of triplicate experiments
T2 construct: purchased Sigma-Aldrich (St. Louis, MO, USA)
T2 sequence (O42275 24-633): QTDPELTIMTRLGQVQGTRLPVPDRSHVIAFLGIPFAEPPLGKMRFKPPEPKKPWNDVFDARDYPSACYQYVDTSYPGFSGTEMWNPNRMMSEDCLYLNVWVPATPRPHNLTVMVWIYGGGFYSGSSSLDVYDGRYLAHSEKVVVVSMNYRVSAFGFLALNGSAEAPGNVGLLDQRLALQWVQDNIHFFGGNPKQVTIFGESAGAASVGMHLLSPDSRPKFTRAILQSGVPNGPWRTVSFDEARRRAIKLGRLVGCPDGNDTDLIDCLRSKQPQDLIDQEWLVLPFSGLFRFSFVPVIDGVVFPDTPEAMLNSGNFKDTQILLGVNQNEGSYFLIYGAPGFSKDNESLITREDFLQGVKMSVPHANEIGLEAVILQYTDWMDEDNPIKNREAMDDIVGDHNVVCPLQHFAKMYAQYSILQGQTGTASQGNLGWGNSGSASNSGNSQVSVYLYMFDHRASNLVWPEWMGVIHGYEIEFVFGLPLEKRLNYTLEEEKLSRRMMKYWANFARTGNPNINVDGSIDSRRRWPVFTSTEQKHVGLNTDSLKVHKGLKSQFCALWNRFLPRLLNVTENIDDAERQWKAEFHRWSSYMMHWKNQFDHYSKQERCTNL
Experimental: (§5) AChE and BChE inhibitory activities were assessed by a modified version of the Ellman colorimetric method [34]. Each reaction mixture consisted of sodium phosphate buffer (pH 7.4), test sample solution, and either AChE (electrophorus electricus, 0.8 U/mL) or BChE (equine serum, 0.8 U/mL) solution, which was then mixed and incubated for 15 min at room temperature. Reactions were initiated upon addition of DTNB and substrate (0.75 mM).
All reactions were performed in 96-well plates in triplicate, and recorded using a microplate spectrophotometer (Molecular Devices, Sunnyvale, CA, USA).

[3] = biological target: T3, BChE (Equus caballus, UniProt P81908); test: BChE inhibition, modified Ellman colorimetric method; assay type: biochemical, equine; conditions: mean ± S.E. of triplicate experiments
T3 construct: BChE (equine serum, 0.8 U/mL); purchased Sigma-Aldrich (St. Louis, MO, USA); host or cells: equine serum
T3 sequence (P81908 whole entry): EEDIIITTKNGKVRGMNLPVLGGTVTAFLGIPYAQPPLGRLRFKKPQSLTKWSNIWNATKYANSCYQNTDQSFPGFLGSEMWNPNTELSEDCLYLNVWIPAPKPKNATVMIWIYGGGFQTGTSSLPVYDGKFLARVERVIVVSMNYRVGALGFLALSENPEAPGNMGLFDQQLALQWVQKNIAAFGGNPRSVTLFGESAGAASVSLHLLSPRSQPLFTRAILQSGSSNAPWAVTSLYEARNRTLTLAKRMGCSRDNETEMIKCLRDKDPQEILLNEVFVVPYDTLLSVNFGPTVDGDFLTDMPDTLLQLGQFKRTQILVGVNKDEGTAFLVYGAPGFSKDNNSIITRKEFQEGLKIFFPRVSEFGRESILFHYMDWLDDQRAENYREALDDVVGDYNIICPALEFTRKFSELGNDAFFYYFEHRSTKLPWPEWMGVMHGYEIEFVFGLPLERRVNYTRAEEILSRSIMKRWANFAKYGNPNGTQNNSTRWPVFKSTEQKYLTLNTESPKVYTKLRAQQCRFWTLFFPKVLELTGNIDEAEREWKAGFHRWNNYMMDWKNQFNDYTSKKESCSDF
Experimental: as §5
Enzymatic hydrolysis, mediated by AChE or BChE, was monitored according to the formation of yellow 5-thio-2-nitrobenzoate anions at 405 nm for 15 min, which were produced by the reaction of DTNB with thiocholine released from ACh or BCh. All reactions were performed in 96-well plates in triplicate, and recorded using a microplate spectrophotometer (Molecular Devices, Sunnyvale, CA, USA).

[4] = biological target: T4, α-secretase (tumor necrosis factor-α converting enzyme, TACE) (Homo sapiens, UniProt P78536); test: TACE (α-secretase) inhibition assay; assay type: biochemical; conditions: mean ± S.E., read-out: Inhibitory activities (%) TACE; for inhibition at 10 µM: sample 10 μM; for inhibition at 100 µM: sample 100 μM
T4 construct: purchased R&D Systems (Minneapolis, MN, USA)
T4 sequence (P78536 215-824): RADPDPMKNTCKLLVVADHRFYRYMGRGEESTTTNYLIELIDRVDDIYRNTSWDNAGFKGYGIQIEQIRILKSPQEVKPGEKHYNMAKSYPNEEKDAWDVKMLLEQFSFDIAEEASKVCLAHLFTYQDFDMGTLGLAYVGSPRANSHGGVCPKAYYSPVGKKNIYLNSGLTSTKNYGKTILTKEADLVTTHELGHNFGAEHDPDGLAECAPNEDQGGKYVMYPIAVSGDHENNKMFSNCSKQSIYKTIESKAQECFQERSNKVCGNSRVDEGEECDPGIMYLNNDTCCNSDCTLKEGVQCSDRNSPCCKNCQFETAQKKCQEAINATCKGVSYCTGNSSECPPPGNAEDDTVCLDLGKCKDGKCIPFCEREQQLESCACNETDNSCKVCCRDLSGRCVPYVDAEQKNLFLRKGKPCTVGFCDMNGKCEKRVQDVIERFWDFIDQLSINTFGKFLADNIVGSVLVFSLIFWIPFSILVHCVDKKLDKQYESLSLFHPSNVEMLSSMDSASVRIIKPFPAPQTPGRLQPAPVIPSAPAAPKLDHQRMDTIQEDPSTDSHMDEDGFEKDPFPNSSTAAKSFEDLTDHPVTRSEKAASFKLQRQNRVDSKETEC
Experimental: as §3, §4

[5] = tested on: Trypsin; test: Trypsin inhibition assay; assay type: biochemical; conditions: mean ± S.E.
Experimental: as §3, §4

[6] = biological target: T5, Chymotrypsin (Bos taurus, UniProt P00766); test: Chymotrypsin inhibition assay; assay type: biochemical; conditions: mean ± S.E., read-out: Inhibitory activities (%) Chymotrypsin; for inhibition at 10 µM: sample 10 μM; for inhibition at 100 µM: sample 100 μM
T5 construct: purchased Sigma-Aldrich
Experimental: as §3, §4

[7] = biological target: T6, Elastase (Sus scrofa, UniProt P00772); test: Elastase inhibition assay; assay type: biochemical; conditions: mean ± S.E., read-out: Inhibitory activities (%) Elastase; for inhibition at 10 µM: sample 10 μM; for inhibition at 100 µM: sample 100 μM
T6 construct: purchased Sigma-Aldrich
T6 sequence (P00772 27-266): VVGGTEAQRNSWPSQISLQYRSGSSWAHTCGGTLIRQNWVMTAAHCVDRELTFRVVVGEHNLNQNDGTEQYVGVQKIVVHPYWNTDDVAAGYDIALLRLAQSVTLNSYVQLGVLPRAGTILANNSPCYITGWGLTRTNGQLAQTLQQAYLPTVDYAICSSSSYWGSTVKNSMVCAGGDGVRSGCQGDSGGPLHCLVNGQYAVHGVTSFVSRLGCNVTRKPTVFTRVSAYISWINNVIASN
Experimental: as §3, §4

[8] = biological target: T1, BACE1; test: Inhibition kinetics on BACE1 (Dixon and Lineweaver–Burk plots); assay type: biochemical; conditions: for Inhibition mode on BACE1: Dixon and Lineweaver–Burk plots; for Ki: Dixon plot
Experimental: (§1) The inhibitory constant (Ki) was obtained by interpretation of the Dixon plot, and Vmax and Km were defined by Lineweaver–Burk plots, using the initial velocities obtained over a substrate concentration range. These kinetic parameters were calculated using the Enzyme Kinetic™ module of SigmaPlot™ version 12.3 (Systat Software, Inc., San Jose, CA, USA).

[9] = biological target: T2, AChE; test: Inhibition kinetics on AChE (Dixon and Lineweaver–Burk plots); assay type: biochemical; conditions: for Inhibition mode on AChE: Dixon and Lineweaver–Burk plots; for Ki: Dixon plot
Experimental: (§2) AChE and BChE inhibitory activities were assessed by a modified version of the Ellman colorimetric method. Each reaction mixture consisted of sodium phosphate buffer (pH 7.4), test sample solution, and either AChE (electrophorus electricus, 0.8 U/mL) or BChE (equine serum, 0.8 U/mL) solution, which was then mixed and incubated for 15 min at room temperature. Reactions were initiated upon addition of DTNB and substrate (0.75 mM).
as §1

[10] = tested on: cholinesterases; conditions: several studies ref 20, 21; cited from earlier work
[11] = tested on: brains of rats; conditions: pre-administration 40 mg/kg, oral; no reference given; cited from earlier work
[12] = tested on: ECV304/C6 co-culture model; conditions: in vitro ECV304/C6 co-culture model ref 27; cited from earlier work
[13] = tested on: rat brain; conditions: cited from earlier work
[14] = biological target: T3, BChE; test: Inhibition kinetics on BChE (Dixon and Lineweaver–Burk plots); assay type: biochemical, equine
Experimental: as §2, §1

[15] = tested on: APP/PS1 Tg mice; conditions: oral 100 mg/kg for 10 days ref 16; cited from earlier work
[16] = tested on: APPswe/PS1dE9 Tg mice; conditions: chronic administration for 16 weeks ref 18; cited from earlier work
[17] = tested on: mice; conditions: orally 4.5 mg/kg body weight of mice ref 23; cited from earlier work
[18] = tested on: AChE; conditions: previous study ref 19; read-out: IC50 against AChE; cited from earlier work

T1 sequence (P56817 46-501): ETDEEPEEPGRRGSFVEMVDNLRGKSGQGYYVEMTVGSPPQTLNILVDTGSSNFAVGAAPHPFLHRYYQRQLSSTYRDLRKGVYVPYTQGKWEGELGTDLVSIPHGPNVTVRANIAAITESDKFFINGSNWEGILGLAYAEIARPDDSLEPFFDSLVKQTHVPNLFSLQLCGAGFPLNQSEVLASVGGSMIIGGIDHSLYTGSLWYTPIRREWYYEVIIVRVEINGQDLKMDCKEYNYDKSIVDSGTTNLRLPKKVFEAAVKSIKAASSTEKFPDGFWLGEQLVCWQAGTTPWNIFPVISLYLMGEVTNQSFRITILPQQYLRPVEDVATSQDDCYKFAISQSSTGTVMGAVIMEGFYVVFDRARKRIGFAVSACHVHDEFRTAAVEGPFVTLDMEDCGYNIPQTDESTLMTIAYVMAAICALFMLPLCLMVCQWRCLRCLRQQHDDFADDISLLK

| SMILES | IC50 [1] | IC50 [2] | IC50 [3] | inhibition at 10 µM [4] | inhibition at 100 µM [4] | Inhibitory activities (%) Trypsin ([5]; sample 10 μM) | Inhibitory activities (%) Trypsin ([5]; sample 100 μM) | inhibition at 10 µM [6] | inhibition at 100 µM [6] | inhibition at 10 µM [7] | inhibition at 100 µM [7] | Inhibition mode on BACE1 [8] | Ki [8] | Inhibition mode on AChE [9] | Ki [9] | Inhibitory activity against cholinesterases [10] | BBB crossing [12] | other results |
| --- | --- | --- | --- | --- | --- | --- | --- | --- | --- | --- | --- | --- | --- | --- | --- | --- | --- | --- |
| COc1ccc(C2CC(=O)c3c(O)cc(O)cc3O2)cc1O (stereo not drawn) [Hesperetin, 4′-methoxy-3′,5,7-trihydroxyflavanone] | 22.1 ± 1.81 µM | 45.7 ± 2.69 µM | > 100 µM | 8.66 ± 0.7% | 11.3 ± 1.37% | 5.31 ± 0.39% | 4.72 ± 0.45% | 4.91 ± 1.4% | 9.21 ± 0.33% | 4.84 ± 0.46% | 9.95 ± 1.28% | noncompetitive inhibition | 42.7 µM | noncompetitive inhibition | 53.9 µM | low inhibitory activity | cross the BBB | Effect on cadmium-induced damage in the brains of rats [11]: significantly attenuated cadmium-induced oxidative stress and mitochondrial dysfunction; Presence in the rat brain ([13]; after oral administration of hesperidin ref 31): detected in the rat brain; Presence in the striatum of rat brains ([13]; intravenous 50 mg/kg ref 29): detected in the striatum of rat brains |
| COc1ccc([C@@H]2CC(=O)c3c(O)cc(O[C@@H]4O[C@H](CO[C@@H]5O[C@@H](C)[C@H](O)[C@@H](O)[C@H]5O)[C@@H](O)[C@H](O)[C@H]4O)cc3O2)cc1O [Hesperidin, hesperidin] | 17 ± 1.25 µM | 22.8 ± 2.78 µM | 48.1 ± 0.74 µM | 8.53 ± 1.05% | 9.19 ± 1.2% | 2.27 ± 0.30% | 1.41 ± 0.22% | 3.19 ± 0.28% | 4.11 ± 0.34% | 6.91 ± 0.83% | 6 ± 1.33% | noncompetitive inhibition | 39.4 µM | noncompetitive inhibition | 21.4 µM | low inhibitory activity | – | Inhibition mode on BChE ([14]; Dixon and Lineweaver–Burk plots): noncompetitive inhibition; Ki ([14]; Dixon plot): 93.6 µM; Neuroprotective effect in APP/PS1 Tg mice [15]: recovered microglial activation, APP expression, Aβ deposition, and behavioral dysfunction; Effect of chronic administration in APPswe/PS1dE9 Tg mice [16]: attenuated oxidative damage, increased anti-oxidative defense, and alleviated cognitive impairment; Presence in brain homogenates ([13]; systemic administration of hesperidin to rats ref 30): presence of hesperidin was confirmed by brain homogenates |
| O=C1CC(c2ccc(O)cc2)Oc2cc(O)cc(O)c21 (stereo not drawn) [Naringenin] | 30.3 ± 2.06 µM | 42.7 ± 4.3 µM | > 100 µM | 5.15 ± 0.98% | 6.95 ± 1.52% | 7.80 ± 1.25% | 5.84 ± 0.75% | 8.77 ± 0.74% | 6.88 ± 0.89% | 9.74 ± 0.41% | 10.5 ± 1.17% | noncompetitive inhibition | 47.1 µM | noncompetitive inhibition | 45.4 µM | – | cross the BBB | Effect on scopolamine-induced amnesia [17]: significantly mitigated scopolamine-induced amnesia; Presence in cerebral cortexes of rats ([13]; intravenous naringenin 20 mg/kg ref 28): identified |
| COc1cc(O[C@@H]2O[C@H](CO[C@@H]3O[C@H](CO)[C@@H](O)[C@H](O)[C@H]3O)[C@@H](O)[C@H](O)[C@H]2O)c2c(O)c3c(=O)cc(C)oc3cc2c1 [Rubrofusarin-6-O-β-D-gentiobioside] | – | – | – | – | – | – | – | – | – | – | – | – | – | – | – | – | – | IC50 [18]: 15.9 ± 0.32 µM |
